Experiments:
[1] = target: T1, Receptor-type tyrosine-protein kinase FLT3 (Homo sapiens, UniProt P36888); assay: Inhibition of wild type FLT3 (unknown origin)
T1 sequence (P36888 whole entry): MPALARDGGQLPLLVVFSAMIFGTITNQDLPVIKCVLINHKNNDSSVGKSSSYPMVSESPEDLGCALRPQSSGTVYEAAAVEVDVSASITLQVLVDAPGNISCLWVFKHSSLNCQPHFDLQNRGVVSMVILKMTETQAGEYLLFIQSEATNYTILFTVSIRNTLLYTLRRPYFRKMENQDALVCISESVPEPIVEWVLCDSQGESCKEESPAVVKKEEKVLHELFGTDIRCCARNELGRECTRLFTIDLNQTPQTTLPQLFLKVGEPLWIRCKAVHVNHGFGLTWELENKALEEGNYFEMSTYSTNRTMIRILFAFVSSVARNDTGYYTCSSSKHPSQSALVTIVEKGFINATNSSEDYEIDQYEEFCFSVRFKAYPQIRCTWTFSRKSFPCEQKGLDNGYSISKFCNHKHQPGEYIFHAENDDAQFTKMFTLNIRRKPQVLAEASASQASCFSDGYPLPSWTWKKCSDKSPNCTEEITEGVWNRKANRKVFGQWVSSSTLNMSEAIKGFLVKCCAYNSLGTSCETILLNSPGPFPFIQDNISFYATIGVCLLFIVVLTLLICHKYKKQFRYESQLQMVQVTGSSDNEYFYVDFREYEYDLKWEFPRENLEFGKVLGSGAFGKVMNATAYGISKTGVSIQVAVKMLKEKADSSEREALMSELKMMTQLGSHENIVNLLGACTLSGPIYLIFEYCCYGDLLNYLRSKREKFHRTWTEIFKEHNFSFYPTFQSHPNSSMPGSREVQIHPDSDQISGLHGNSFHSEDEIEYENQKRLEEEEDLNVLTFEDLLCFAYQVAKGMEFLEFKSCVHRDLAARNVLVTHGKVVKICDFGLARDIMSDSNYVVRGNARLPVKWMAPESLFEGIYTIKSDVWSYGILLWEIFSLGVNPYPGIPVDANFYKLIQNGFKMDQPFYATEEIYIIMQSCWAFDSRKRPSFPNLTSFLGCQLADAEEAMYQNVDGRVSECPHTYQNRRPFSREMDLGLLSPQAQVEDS

MV4-11 = assay: Antiproliferative activity against human MV4-11 cells assessed as inhibition of cell growth; type: functional, cell-based
[2] = target: Receptor-type tyrosine-protein kinase FLT3 (Homo sapiens, UniProt P36888, D835Y); assay: Inhibition of FLT3 D835Y mutant (unknown origin)
HeLa = assay: Antiproliferative activity against human HeLa cells assessed as inhibition of cell growth; type: functional, cell-based
BaF3 [3] = assay: Antiproliferative activity against mouse BaF3 cells harboring FLT3-D835F mutant assessed as inhibition of cell growth; type: functional, cell-based
[4] = Antiproliferative activity against human PBMC cells assessed as inhibition of cell growth; type: toxicity, cell-based
MCF7 = assay: Antiproliferative activity against human MCF7 cells assessed as inhibition of cell growth; type: functional, cell-based
BaF3 [5] = assay: Antiproliferative activity against mouse BaF3 cells harboring FLT3-D835V mutant assessed as inhibition of cell growth; type: functional, cell-based
BaF3 [6] = assay: Antiproliferative activity against mouse BaF3 cells harboring FLT3-ITD mutant assessed as inhibition of cell growth; type: functional, cell-based
MM1.S = assay: Antiproliferative activity against human MM1.S cells assessed as inhibition of cell growth; type: functional, cell-based
BaF3 [7] = assay: Antiproliferative activity against mouse BaF3 cells harboring FLT3-ITD-D835Y mutant assessed as inhibition of cell growth; type: functional, cell-based
BaF3 [8] = assay: Antiproliferative activity against mouse BaF3 cells harboring FLT3-F691L mutant assessed as inhibition of cell growth; type: functional, cell-based
MOLM-13 = assay: Antiproliferative activity against human MOLM-13 cells assessed as inhibition of cell growth; type: functional, cell-based

| Compound | IC50 [1] [nM] | IC50 [2] [nM] | IC50 (MV4-11; mv4-11) [nM] | also measured |
| --- | --- | --- | --- | --- |
| CC1(COc2ccc(Nc3ncc(C(F)(F)F)c(N[C@@H]4CCCNC4)n3)cc2)COC1 | 14.3 | 25.9 | 9.74 | – |
| CC1(COc2cccc(Nc3ncc(C(F)(F)F)c(N[C@@H]4CCCNC4)n3)c2)COC1 | 16.5 | 24.3 | 17.3 | – |
| CC1(COc2cccc(Nc3ncc(C(F)(F)F)c(NCC4CCNCC4)n3)c2)COC1 | 11 | 22.4 | 6.93 | – |
| CC1(COc2ccc(Nc3ncc(C(F)(F)F)c(N4CCNCC4)n3)cc2)COC1 | 231 | 351 | – | – |
| CC1(COc2ccc(Nc3ncc(C(F)(F)F)c(N4CCOCC4)n3)cc2)COC1 | 339 | 380 | – | – |
| CCc1nc(C(N)=O)c(Nc2ccc(N3CCC(N4CCN(C)CC4)CC3)c(OC)c2)nc1NC1CCOCC1 [GILTERITINIB] | – | – | – | IC50 (HeLa; Homo sapiens, HeLa): 3200 nM; IC50 (BaF3 [3]; Mus musculus, BaF3): 0.66 nM; IC50 [4]: 7030 nM; IC50 (MCF7; Homo sapiens, MCF7): 1300 nM; IC50 (BaF3 [5]; Mus musculus, BaF3): 0.62 nM; IC50 (BaF3 [6]; Mus musculus, BaF3): 0.6 nM; IC50 (MM1.S; Homo sapiens, MM1.S): 203 nM; IC50 (BaF3 [7]; Mus musculus, BaF3): 0.48 nM; IC50 (BaF3 [8]; Mus musculus, BaF3): 1.05 nM; IC50 (MV4-11; Homo sapiens, MV4-11): 1.34 nM |
| CN1CCN(c2nc(Nc3ccc(OCC4(C)COC4)cc3)ncc2C(F)(F)F)CC1 | 339 | 686 | – | – |
| CC1(COc2ccc(Nc3ncc(C(F)(F)F)c(N[C@H]4CC[C@H](N)CC4)n3)cc2)COC1 | 29.9 | 27.5 | 26.4 | – |
| CC1(COc2ccc(Nc3ncc(C(F)(F)F)c(N4CCC(N)CC4)n3)cc2)COC1 | 138 | 350 | – | – |
| CC1(COc2ccc(Nc3ncc(C(F)(F)F)c(N[C@H]4CC[C@@H](N)CC4)n3)cc2)COC1 | 7.42 | 9.21 | 0.83 | IC50 (HeLa; hela): 5780 nM; IC50 (BaF3 [3]; baf3): 0.94 nM; IC50 [4]: 7860 nM; IC50 (MCF7; mcf7): 4980 nM; IC50 (BaF3 [5]; baf3): 0.98 nM; IC50 (BaF3 [6]; baf3): 0.91 nM; IC50 (MM1.S; mm1.s): 2250 nM; IC50 (BaF3 [7]; baf3): 0.95 nM; IC50 (MOLM-13): 10.6 nM; IC50 (BaF3 [8]; baf3): 4.2 nM |

Further lines, with some results ahead:

| IC50 [1] [nM] | IC50 [2] [nM] | Compound | IC50 (MV4-11; mv4-11) [nM] | also measured |
| --- | --- | --- | --- | --- |
| 29.6 | 64.6 | CC1(COc2ccc(Nc3ncc(C(F)(F)F)c(N[C@H]4CC[C@H](O)CC4)n3)cc2)COC1 | – | IC50 (MV4-11; Homo sapiens, MV4-11): 7.58 nM |
| 32.4 | 40.8 | CC1(COc2ccc(Nc3ncc(C(F)(F)F)c(NCC4CCNCC4)n3)cc2)COC1 | – | – |
| 9.46 | 9.79 | CC1(COc2ccc(Nc3ncc(C(F)(F)F)c(N[C@H]4CC[C@@H](O)CC4)n3)cc2)COC1 | – | IC50 (MV4-11; Homo sapiens, MV4-11): 42.9 nM |
| 86 | 142 | CC1(COc2ccc(Nc3ncc(C(F)(F)F)c(N4CCC(O)CC4)n3)cc2)COC1 | – | – |
| 28.9 | 41.7 | CC1(COc2ccc(Nc3ncc(C(F)(F)F)c(NC4CCNCC4)n3)cc2)COC1 | – | – |
| 32.1 | 68.7 | CC1(COc2cccc(Nc3ncc(C(F)(F)F)c(NC4CCNCC4)n3)c2)COC1 | – | – |

Source: ChEMBL document CHEMBL5390233, “Design, synthesis and biological evaluation of 2-aminopyrimidine derivatives as potent FLT3 inhibitors” (Bioorg Med Chem Lett, 2023)
